In patent US7964624B1, “Inhibitors of serine proteases” (priority 2005, dated 2011):
Where a SMILES comes first, the peptide text is derived from it. [ ]: non-standard residue; d: D form. Abu = CC[C@H](N)C(=O)O

Legend:
Assay in all cases: Determination of Km and Vmax for peptide substrates
HCV NS3 protease domain = biological target: T1, HCV NS3 protease domain (Hepatitis C virus genotype 1b, UniProt Q9WMX2); format: biochemical; details: enzyme NS3 protease domain; peptide substrate varied 3-200 μM; Michaelis-Menten fit
T1 construct: The first 181 amino acids of NS3 (residues 1027-1207 of the viral polyprotein); hexa-histidine (C); made in house; host or cells: E. coli BL21/DE3 pLysS
Experimental: This assay is a modification of that described by Landro, et al. (Landro J A, Raybuck S A, Luong Y C, O'Malley E T, Harbeson S L, Morgenstern K A, Rao G and Livingston D L. Biochemistry 1997, 36, 9340-9348), and uses a peptide substrate (NS5AB), based on the NS5A/NS5B cleavage site for genotype 1a HCV. The substrate stock solution (25 mM) was prepared in DMSO containing 0.2 M DTT and stored at −20° C. A synthetic peptide cofactor (KK4A) was used as a substitute for the central core region of NS4A. The reaction was performed in a 96-well microtiter plate format using 25 ηM to 50 ηM HCV NS3 protease domain in buffer containing 50 mM HEPES pH 7.8, 100 mM NaCl, 20% glycerol, 5 mM DTT and 25 μM KK4A. The final DMSO concentration was no greater than 2% v/v. […]
The SMSY product was separated from substrate and KK4A using a microbore separation method. […] The SMSY product peak was quantitated using the data collected at […].
To determine the kinetic parameters Km and Vmax, the HCV NS3 protease domain or HCV NS3•4A was reacted with peptide substrate under the assay conditions described above. […] The ratio of the product peak area (as determined by reverse phase HPLC) to the reaction time yielded a rate of enzyme catalyzed hydrolysis. […] The value of kcat was determined from Vmax using the nominal protease concentration and a fully cleaved substrate peptide as an instrument calibration standard.

HCV NS3•4A = biological target: T2, HCV NS3•4A (Hepatitis C virus genotype 1a, UniProt P27958); format: biochemical, HCV sub-type strain 1a; details: enzyme NS3•4A; peptide substrate varied 3-200 μM; Michaelis-Menten fit
T2 construct: hexa-histidine (N); made in house; host or cells: Sf9 insect cells (baculovirus, pVL1392)
Experimental: (§1) This assay follows the cleavage of a peptide substrate by full-length hepatitis C viral protein NS3•4A. One of three peptide substrates based on the NS5A/NS5B cleavage site for genotype 1a HCV is used to measure enzyme activity. All substrate stock solutions (25 mM) were prepared in DMSO containing 0.2M DTT and stored at −20° C. A synthetic peptide cofactor (NS4A Peptide) was used to supplement NS4A. Peptide sequences are shown below. The hydrolysis reaction was performed in a 96-well microtiter plate format using 100 ηM to 125 ηM HCV NS3•4A in buffer containing 50 mM HEPES pH 7.8, 100 mM NaCl, 20% glycerol, 5 mM DTT and 25 μM NS4A Peptide. The final DMSO concentration was no greater than 2% v/v. Reactions using NS5AB or NS5AB-EDANS as substrate were quenched by the addition of 10% trifluoroacetic acid (TFA) to yield a final TFA concentration of 2.5%. Reactions using FITC-NS5AB-1 as substrate were quenched by the addition of 0.4M formic acid to yield a final concentration of 0.08M acid.
(§2) Enzymatic activity was assessed by separation of substrate and products by reverse phase HPLC. The instrument used was a Agilent 1100 with a G1322A degasser, either a G1312A binary pump or a G1311A quaternary pump, a G1313A autosampler, a G1316A column thermostated chamber, a G1321A fluorescence detector and a G1315A diode array detector. The column thermostat was at 40° C. […] The C-terminal product peak (NH2-SMSY-COOH) was quantitated using the absorbance data collected at 210 ηm. […] The C-terminal product peak (NH2-SMSYT-Asp(EDANS)-KKK-COOH) was quantitated using the fluorescence data collected at 350 ηm excitation/490 ηm emission. […] The N-terminal product peak (FITC-Ahx-EDVV-(alpha)Abu-C—COOH) was quantitated using the fluorescence data collected at 440 nm excitation/520 nm emission. Alternatively, the ratio of N-terminal product to unreacted FITC-NS5AB-1 substrate was determined using a Caliper LabChip 3000 with detection at 488 nm excitation/530 nm emission, using a chip buffer of 100 mM Tris pH 7.0, 10 mM EDTA, 0.01% (v/v) Brij-35, and 0.1% (v/v) CR-3. […]

[1] = test system: CC[C@H](NC(=O)[C@@H](NC(=O)[C@@H](NC(=O)[C@H](CC(=O)O)NC(=O)[C@@H](N)CCC(=O)O)C(C)C)C(C)C)C(=O)N[C@@H](CS)C(=O)N[C@@H](CO)C(=O)N[C@@H](CCSC)C(=O)N[C@@H](CO)C(=O)N[C@@H](Cc1ccc(O)cc1)C(=O)N[C@H](C(=O)N[C@@H](CC(=O)NCCNc1cccc2c(S(=O)(=O)O)cccc12)C(=O)N[C@@H](CCCCN)C(=O)N[C@@H](CCCCN)C(=O)N[C@@H](CCCCN)C(=O)O)[C@@H](C)O; format: biochemical, HCV sub-type strain 1a; details: other: enzyme NS3•4A; peptide substrate varied 3-200 μM; Michaelis-Menten fit; 40.0 °C
Experimental: as §1, §2

In the case of `CC[C@H](NC(=O)[C@@H](NC(=O)[C@@H](NC(=O)[C@H](CC(=O)O)NC(=O)[C@@H](N)CCC(=O)O)C(C)C)C(C)C)C(=O)N[C@@H](CS)C(=O)N[C@@H](CO)C(=O)N[C@@H](CCSC)C(=O)N[C@@H](CO)C(=O)N[C@@H](Cc1ccc(O)cc1)C(=O)O` [DomainNS5AB] (H-EDVV[Abu]CSMSY-OH), the Km (HCV NS3 protease domain) was 25 µM.

`CC[C@H](NC(=O)[C@@H](NC(=O)[C@@H](NC(=O)[C@H](CC(=O)O)NC(=O)[C@@H](N)CCC(=O)O)C(C)C)C(C)C)C(=O)N[C@@H](CS)C(=O)N[C@@H](CO)C(=O)N[C@@H](CCSC)C(=O)N[C@@H](CO)C(=O)N[C@@H](Cc1ccc(O)cc1)C(=O)O` [NS5AB, NH2-EDVV-(alpha)Abu-CSMSY-COOH] (H-EDVV[Abu]CSMSY-OH) showed a Km (HCV NS3•4A) of 30 µM.

Work on “HCV NS3•4A (Hepatitis C virus (isolate H77))” yielded a Km [1] of 56 µM and a kcat/Km [1] of 1400 M⁻¹ s⁻¹.
